Reference: PMC7501296, “Rapid and direct control of target protein levels with VHL-recruiting dTAG molecules” (Nature Communications, 2020)
Values joined by “and” are separate entries in the source; they are usually repeats but may differ in a detail not shown here. Identical values can stand only once.

System: EWS502 FKBP12^F36V-EWS/FLI; EWS/FLI^−/− cells
Experiment: Quantitative MS proteomics, EWS502 FKBP12F36V-EWS/FLI; EWS/FLI-/- cells
Format: cell-based, Homo sapiens
Conditions: for TMT intensity per TMT channel: biological replicates
Experimental: Cell pellets from PATU-8902 and EWS502 cells were lysed using 8 M urea, 200 mM 4-(2-hydroxyethyl)-1-piperazinepropanesulfonic acid (EPPS) at pH 8.5 with protease inhibitors. Samples were further homogenized and DNA was sheered via sonication using a probe sonicator (20 × 0.5 s pulses; level 3). Total protein was determined using a BCA assay and stored at −80 °C until future use. A total of 100 µg of protein was aliquoted for each condition and TMT channel for further downstream processing. Protein extracts were reduced using 10 mM dithiothreitol (DTT) for 30 min at room temperature. Next, samples were alkylated with 20 mM iodoacetamide for 45 min in the dark at room temperature. To facilitate the removal of incompatible reagents, proteins were precipitated using chloroform methanol. Briefly, to 100 µL of each sample, 400 µL of methanol was added, followed by 100 µL of chloroform with thorough vortexing. Next, 300 µL of HPLC grade water was added and samples were vortexed thoroughly. Each sample was centrifuged at 14,000 × g for 5 min at room temperature. The upper aqueous layer was removed and the protein pellet was washed twice with methanol and centrifuged at 14,000 × g for 5 min at room temperature. Protein pellets were resolubilized in 200 mM EPPS buffer and digested overnight with Lys-C (1:100, enzyme:protein ratio) at room temperature. The next day, trypsin (1:100 ratio) was added and incubated at 37 °C for an additional 6 h in a ThermoMixer set to 1000 RPM.
To each digested sample, 30% anhydrous acetonitrile was added and 100 µg of peptides were labeled using 200 µg of TMT reagent (TMT1-TMT11). Following labeling, a 5% hydroxylamine solution was used to quench excess TMT reagent. To equalize protein loading, a ratio check was performed by pooling 2 µg of each TMT-labeled sample. Samples were pooled and desalted using in-house packed C18 StageTips and analyzed by LC-MS/MS. Normalization factors were calculated from this label check, samples were mixed 1:1 across all TMT channels and desalted using a 100 mg Sep-Pak solid phase extraction cartridge. Eluted pooled peptides were further fractionated with basic-pH reverse-phase (bRP) HPLC using an Agilent 300 extend C18 column and collected into a 96 deep-well plate. Samples were consolidated into 24 fractions, and 12 nonadjacent fraction were desalted using StageTips prior to analyses using LC-MS/MS[35]–[37].
All mass spectrometry data was acquired using an Orbitrap Fusion mass spectrometer in-line with a Proxeon NanoLC-1000 UHPLC system. Peptides were separated using an in-house 100 µm capillary column packed with 40 cm of Accucore 150 resin (2.6 µm, 150 Å) (Thermo Fisher Scientific) using a 180 min LC gradient per fraction. Eluted peptides were acquired using synchronous precursor selection (SPS-MS3) method for TMT quantification. Briefly, MS1 spectra were acquired at 120 K resolving power with a maximum of 50 ms in the Orbitrap. MS2 spectra were acquired by selecting the top ten most abundant features via collisional induced dissociation (CID) in the ion trap using an automatic gain control (AGC) of 15 K, quadrupole isolation width of 0.7 m/z and a maximum ion time of 100 ms. For MS3 acquisition, a synchronous precursor selection of ten fragment ions was acquired with an AGC of 150 K for 150 ms and a normalized collision energy of 55.
All acquired raw data were converted to mzXML using Raw File Reader (v3.0.77). Spectra were processed using Comet (2019.01.5)[39]–[41], search results were filtered using the LDA function MASS Package in R, and data were processed using an in-house informatics pipeline[42]–[44]. Custom code was not developed in this study. Briefly, peptide spectral libraries were first filtered to a peptide false discovery rate (FDR) of less than 1% using linear discriminant analysis employing a target decoy strategy. […]

CC[C@H](C(=O)N1CCCC[C@H]1C(=O)O[C@H](CCc1ccc(OC)c(OC)c1)c1ccccc1OCC(=O)NCCCCCCC(=O)N[C@H](C(=O)N1C[C@H](O)C[C@H]1C(=O)N[C@@H](C)c1ccc(-c2scnc2C)cc1)C(C)(C)C)c1cc(OC)c(OC)c(OC)c1 [dTAG^V-1]
Downstream EWS/FLI targets such as NKX2-2 (1 μM): decrease
FKBP12F36V-EWS/FLI abundance, proteomics (1 μM, 6 h): pronounced loss
TMT intensity per TMT channel (protein ALX1, 2 h): 329.39 and 330.899 and 363.825
TMT intensity per TMT channel (protein ALX1, 6 h): 447.307 and 474.897 and 456.686
TMT intensity per TMT channel (protein ALX1, 24 h): 404.298 and 454.379 and 455.33
TMT intensity per TMT channel (protein ALX4, 2 h): 469.052 and 457.885 and 499.883
TMT intensity per TMT channel (protein ALX4, 6 h): 458.233 and 484.524 and 491.274
TMT intensity per TMT channel (protein ALX4, 24 h): 439.297 and 450.367 and 443.433
Fold change > 2 (protein HMGCR, 1 μM, 6 h): + (Fold change in which '+' refers to fold change > 2.)
log2 (Fold change) compared to DMSO (protein HMGCR, 1 μM, 6 h): 1.415
TMT intensity per TMT channel (protein HOXD13, 2 h): 710.117 and 733.089 and 700.291
TMT intensity per TMT channel (protein HOXD13, 6 h): 834.508 and 881.589 and 912.211
TMT intensity per TMT channel (protein HOXD13, 24 h): 931.777 and 1032.27 and 996.28
log2 (Fold change) compared to DMSO (protein NOB1, 1 μM, 6 h): 0.3965
TMT intensity per TMT channel (protein PHOX2B, 2 h): 138.138 and 127.877 and 140.273
TMT intensity per TMT channel (protein PHOX2B, 6 h): 146.64 and 175.628 and 155.142
TMT intensity per TMT channel (protein PHOX2B, 24 h): 163.818 and 130.026 and 156.319
log2 (Fold change) compared to DMSO (protein PRCP, 1 μM, 6 h): -0.5172
TMT intensity per TMT channel (protein SLC12A2, 2 h): 2102.8 and 2152.89 and 2069.05
TMT intensity per TMT channel (protein SLC12A2, 6 h): 2768.92 and 2608.81 and 2791.59
TMT intensity per TMT channel (protein SLC12A2, 24 h): 2883.76 and 2924.13 and 2976.61
log2 (Fold change) compared to DMSO (protein SQLE, 1 μM, 6 h): 0.8919
log2 (Fold change) compared to DMSO (protein TMEM126A, 1 μM, 6 h): -0.3183
